System: endometriosis
Assay: Intralesional administration of progesterone in women with endometriosis (case reports)
Format: in vivo, human
Details: person, 1 g intracystic and 1 g in each bladder nodule, follow up over 12 months
Description: They were regularly monitored by pain scores (visual analog), direct questionnaire, and ultrasound examination. […] Aspiration of the endometrioma and intracystic instillation of 1 g of progesterone was performed. Cystoscopy was carried out and 1 g of progesterone was instilled in each of the nodules in the bladder.

For `CC(=O)[C@H]1CC[C@H]2[C@@H]3CCC4=CC(=O)CC[C@]4(C)[C@H]3CC[C@]12C` [progesterone], the “symptoms on follow up” value (ovarian endometrioma and bladder wall nodules) was “remained symptom free” and the “quality of life with regard to pelvic pain and urinary symptoms” value was “good”.
